Source: article PMC12006171, “Marsupial cathelicidins: characterization, antimicrobial activity and evolution in this unique mammalian lineage” (Frontiers in Immunology, 2025)
In brackets after ≈: the same amount, converted by molar mass. Where a SMILES comes first, the peptide text is derived from it.

What was measured:
Test in all cases: microbe, parasite or virus in culture
Assay type in all cases: cell-based
[1] = system: Escherichia coli ATCC 25922; conditions: ATCC 25922
Description: (§1) Antimicrobial testing of 78 cathelicidin MPs was performed in two phases as outlined in Figure 1 . In phase I, 40 peptides (27 extant and 13 ancestral) were selected for testing based on rank (outlined above) and similarity to published marsupial cathelicidins with known antimicrobial activity ([33], [41]–[43]). These peptides were tested against nine bacteria (Staphylococcus aureus ATCC 29213 and clinical isolate, Escherichia coli ATCC 25922 and clinical isolate, Pseudomonas aeruginosa ATCC 27853 and clinical isolate, Streptococcus agalactiae ATCC 12386 and clinical isolate, Streptococcus pneumoniae ATCC 49619) and three fungi (Candida krusei ATCC 6258, Candida parapsilosis ATCC 22019, and Candida albicans clinical isolate). Details regarding these strains are available in Supplementary Table 4 . The antimicrobial activity of cathelicidins was determined as the minimum inhibitory concentration (MIC), which was the lowest concentration of cathelicidin that prevented visible bacterial or fungal growth, relative to the negative control. […] Minimum bactericidal concentration (MBC) and/or minimum fungicidal concentration (MFC) was conducted to determine microbicidal versus static action. Activity against S. aureus ATCC, E. coli ATCC, and Pseudomonas aeruginosa ATCC 27853 was examined in the presence of divalent cations to determine the impact of inhibitors.
(§2) In phase II, the remaining 38 peptides (37 extant and one ancestral) were tested against six bacteria (S. aureus ATCC and clinical isolate, E. coli ATCC and clinical isolate, and P. aeruginosa ATCC and clinical isolate). […] No further testing on phase II peptides was performed. Detailed methods for all assays are provided in subsequent sections.
(§3) Antimicrobial activity was determined using a broth microdilution susceptibility assay in 96 well polypropylene plates according to Clinical Laboratory Standards Institute guidelines M07-A and M26A as described previously ([33], [42], [43]). The bacterial and fungal isolates from humans and animals used in this study are outlined in Supplementary Table 4 . Only yeasts were included in the panel of fungi as they have been used in the susceptibility testing of eutherian ([3], [81]–[83]) and other marsupial cathelicidins previously ([33], [42], [43]). Cathelicidin mature peptides were solubilized in DMSO and serially diluted in duplicate from 128-0.25μg/mL in a final volume of 100µL. For bacteria, cathelicidins were diluted in Mueller Hinton Broth (MHB) with or without 10% lysed horse blood, and with (MH II B) or without (MHB) calcium and magnesium cations. For fungi, cathelicidins were diluted in Roswell Park Memorial Institute medium (RPMI)-1640 MOPS. Ampicillin or tetracycline were included as a positive control for Gram-positive and -negative bacteria respectively, while amphotericin B was used for fungi. A media-only negative control and growth control (no cathelicidin) were also included on each plate. Bacteria were sub-cultured on Muller Hinton agar (MHA) or sheep blood agar (BA), and fungi on Sabouraud dextrose agar (SAB), 20–24 hours prior to the test. Colonies were suspended in saline, the concentration adjusted to a 0.5 McFarland standard, and then diluted in media to a concentration of 1.0 x 10^6 cells/mL. Then, 100μL was added to each well of the cathelicidin dilution plate, giving a final inoculum density of 5 x 10^5 CFU/mL and cathelicidin concentration of 64-0.125μg/mL. Colony counts were performed on MHA/BA/SAB to confirm inoculum density. All plates were incubated at 35°C for 20–24 hours, depending on the strain.
(§4) Colonies were counted and compared to the colony count of the starting inoculum.

[2] = system: Escherichia coli clinical isolate - animal; conditions: clinical isolate - animal
Description: as §1, §2, §3, §4

[3] = system: Pseudomonas aeruginosa ATCC 27853; conditions: ATCC 27853; read-out: MIC P. aeruginosa ATCC
Description: as §1, §2, §3, §4

[4] = system: Pseudomonas aeruginosa clinical isolate - animal; conditions: clinical isolate - animal; read-out: MIC P. aeruginosa
Description: as §1, §2, §3, §4

[5] = system: Staphylococcus aureus ATCC 29213; conditions: ATCC 29213; read-out: MIC S. aureus ATCC
Description: as §1, §2, §3, §4

[6] = system: Staphylococcus aureus clinical isolate - animal; conditions: clinical isolate - animal; read-out: MIC S. aureus
Description: as §1, §2, §3, §4

Row | MIC E. coli ATCC [1] | MIC [2] | MIC [3] | MIC [4] | MIC [5] | MIC [6] | MIC E. coli [2] | SMILES | MBC E. coli ATCC [1] | MBC E. coli [2]
1 | 3.9 µM (≈ 15.8 µg/mL) | 3.9 µM (≈ 15.8 µg/mL) | >15.7 µM | >15.7 µM | >15.7 µM | >15.7 µM | – | CC[C@H](C)[C@H](NC(=O)CNC(=O)[C@H](Cc1ccccc1)NC(=O)CNC(=O)[C@@H](NC(=O)[C@@H](NC(=O)[C@H](CCCNC(=N)N)NC(=O)[C@H](CCCNC(=N)N)NC(=O)[C@H](CCCNC(=N)N)NC(=O)[C@@H](NC(=O)[C@H](CO)NC(=O)[C@H](CC(N)=O)NC(=O)[C@H](CCCCN)NC(=O)[C@H](CC(C)C)NC(=O)[C@H](CCCCN)NC(=O)[C@H](CCSC)NC(=O)CNC(=O)[C@@H](NC(=O)[C@H](CCCCN)NC(=O)[C@H](CCCCN)NC(=O)[C@@H](NC(=O)[C@@H](NC(=O)[C@H](CC(=O)O)NC(=O)[C@H](Cc1c[nH]c2ccccc12)NC(=O)[C@H](CC(C)C)NC(=O)CNC(=O)[C@H](CCCNC(=N)N)NC(=O)[C@@H](N)CCCCN)[C@@H](C)O)C(C)C)[C@@H](C)O)[C@@H](C)CC)C(C)C)[C@@H](C)O)C(=O)NCC(=O)N[C@H](C(=O)N[C@@H](C)C(=O)N[C@H](C(=O)N[C@@H](CC(C)C)C(=O)N[C@H](C(=O)N1CCC[C@H]1C(=O)N[C@@H](CCCNC(=N)N)C(=O)O)C(C)C)[C@@H](C)CC)[C@@H](C)O [LahiCath5] (H-KRGLWDTVKKTGMKLKNSIRRRVTGFGIGTAILVPR-OH) | 3.9 µM (≈ 15.8 µg/mL) | 7.8 µM (≈ 31.6 µg/mL)
2 | 1.7 µM (≈ 7.99 µg/mL) | – | >13.6 µM | >13.6 µM | >13.6 µM | >13.6 µM | 3.4 µM (≈ 16 µg/mL) | CC[C@H](C)[C@H](NC(=O)[C@H](CO)NC(=O)[C@H](CCCNC(=N)N)NC(=O)[C@H](CCCNC(=N)N)NC(=O)[C@@H]1CCCN1C(=O)[C@H](CCCNC(=N)N)NC(=O)[C@@H]1CCCN1C(=O)[C@H](Cc1ccccc1)NC(=O)[C@@H]1CCCN1C(=O)[C@H](Cc1ccccc1)NC(=O)CNC(=O)[C@@H]1CCCN1C(=O)[C@H](CCCNC(=N)N)NC(=O)[C@@H]1CCCN1C(=O)[C@H](Cc1ccccc1)NC(=O)[C@@H]1CCCN1C(=O)[C@H](Cc1ccccc1)NC(=O)CNC(=O)[C@@H]1CCCN1C(=O)[C@H](CCCNC(=N)N)NC(=O)[C@@H]1CCCN1C(=O)[C@H](Cc1ccccc1)NC(=O)[C@H](CO)NC(=O)[C@@H]1CCCN1C(=O)[C@H](CCCNC(=N)N)NC(=O)[C@@H]1CCCN1C(=O)[C@H](CCCNC(=N)N)NC(=O)[C@@H]1CCCN1C(=O)[C@H](CCCNC(=N)N)NC(=O)[C@@H]1CCCN1C(=O)[C@H](CC(C)C)NC(=O)[C@H](Cc1ccc(O)cc1)NC(=O)[C@@H]1CCCN1C(=O)[C@H](CCCNC(=N)N)NC(=O)[C@H](CCCNC(=N)N)NC(=O)[C@H](CCC(=O)O)NC(=O)[C@H](CCCNC(=N)N)NC(=O)[C@@H](N)CCCNC(=N)N)C(=O)O [MyfaCath3] (H-RRERRPYLPRPRPRPSFPRPGFPFPRPGFPFPRPRRSI-OH) | 1.7 µM (≈ 7.99 µg/mL) | 3.4 µM (≈ 16 µg/mL)
3 | 4.5 µM (≈ 15.8 µg/mL) | 9.1 µM (≈ 32 µg/mL) | >18.2 µM | >18.2 µM | >18.2 µM | >18.2 µM | – | CC[C@H](C)[C@H](NC(=O)[C@H](CCCNC(=N)N)NC(=O)[C@H](CCCNC(=N)N)NC(=O)[C@H](C)N)C(=O)N[C@@H](CCCNC(=N)N)C(=O)N[C@@H](CCCNC(=N)N)C(=O)N1CCC[C@H]1C(=O)N[C@@H](Cc1ccc(O)cc1)C(=O)N[C@@H](CC(C)C)C(=O)N1CCC[C@H]1C(=O)N[C@@H](CCCNC(=N)N)C(=O)N1CCC[C@H]1C(=O)N[C@@H](CCCNC(=N)N)C(=O)N1CCC[C@H]1C(=O)N[C@@H](CCCNC(=N)N)C(=O)N1CCC[C@H]1C(=O)N[C@@H](CC(N)=O)C(=O)N[C@@H](Cc1ccccc1)C(=O)N1CCC[C@H]1C(=O)N1CCC[C@H]1C(=O)N1CCC[C@H]1C(=O)N[C@@H](CCCNC(=N)N)C(=O)N1CCC[C@H]1C(=O)N[C@@H](CCCNC(=N)N)C(=O)N1CCC[C@H]1C(=O)NCC(=O)N[C@@H](CCCNC(=N)N)C(=O)N[C@@H](CO)C(=O)N[C@H](C(=O)O)C(C)C [AnstCath2] (H-ARRIRRPYLPRPRPRPNFPPPRPRPGRSV-OH) | 4.5 µM (≈ 15.8 µg/mL) | 18.2 µM (≈ 64 µg/mL)
